Experimental data published in DBAASP.
Values after ≈ are worked out from the molar mass of the structure shown.

Experiments:
Experiment in all cases: ≥ marks a high value that may be exact or a test limit, other limits are often not marked, values filed in µg/mL are converted to µM
[1] = test system: Staphylococcus aureus ATCC BAA-41
Escherichia coli BL21 = test system: Escherichia coli BL21
[2] = test system: Staphylococcus epidermidis
[3] = test system: Pseudomonas aeruginosa PAO1
[4] = test system: Staphylococcus aureus ATCC 6538P
Aureobasidium pullulans = test system: Aureobasidium pullulans
[5] = test system: Corynebacterium glutamicum ATCC 13032
[6] = test system: Escherichia coli ATCC 25922
[7] = test system: Candida albicans ATCC 10231
[8] = test system: Pseudomonas aeruginosa ATCC 27853
[9] = test system: Staphylococcus aureus ATCC 9144
Escherichia coli UB1005 = test system: Escherichia coli UB1005
[10] = test system: Staphylococcus aureus ATCC 29213
[11] = test system: Salmonella enterica subsp. enterica serovar Typhimurium C77-31
[12] = test system: Salmonella enterica subsp. enterica serovar Typhimurium ATCC 14028
[13] = test system: Salmonella enterica subsp. enterica serovar Pullorum C79-13
[14] = test system: Staphylococcus epidermidis ATCC 12228
[15] = test system: Salmonella enterica subsp. enterica serovar Typhi CMCC 50071
[16] = test system: Staphylococcus aureus ATCC 25923
Listeria monocytogenes = test system: Listeria monocytogenes
[17] = test system: Salmonella enterica subsp. enterica serovar Typhimurium ATCC 14028s
[18] = test system: Pseudomonas aeruginosa K799
[19] = test system: Enterococcus faecalis ATCC 29212
[20] = test system: Pseudomonas aeruginosa ATCC 9027
[21] = test system: Staphylococcus aureus ATCC 6538
[22] = test system: Candida albicans ATCC 36232
[23] = test system: Escherichia coli ATCC 2592
[24] = test system: Micrococcus luteus ATCC 9341
[25] = test system: Pseudomonas aeruginosa 919
[26] = test system: Pseudomonas aeruginosa 910
[27] = test system: Pseudomonas aeruginosa 253
Candida albicans = test system: Candida albicans
[28] = test system: Salmonella enterica serovar Typhimurium
[29] = test system: Pseudomonas aeruginosa H103
Listeria innocua = test system: Listeria innocua
Enterococcus faecalis = test system: Enterococcus faecalis
Escherichia coli = test system: Escherichia coli
Micrococcus luteus = test system: Micrococcus luteus
Streptococcus uberis = test system: Streptococcus uberis
Pseudomonas aeruginosa = test system: Pseudomonas aeruginosa
Enterobacter cloacae = test system: Enterobacter cloacae
Pasteurella multocida = test system: Pasteurella multocida
Bacillus cereus = test system: Bacillus cereus
Leuconostoc lactis = test system: Leuconostoc lactis

SMILES: CC[C@H](C)[C@H](NC(=O)[C@H](CCCCN)NC(=O)[C@H](CCCCN)NC(=O)[C@H](Cc1ccccc1)NC(=O)[C@H](CC(C)C)NC(=O)[C@H](CCCCN)NC(=O)[C@H](Cc1c[nH]c2ccccc12)NC(=O)[C@@H](N)CCCCN)C(=O)NCC(=O)N[C@@H](CCCCN)C(=O)N[C@H](C(=O)N[C@@H](CC(C)C)C(=O)N[C@@H](CCCCN)C(=O)N[C@@H](CCCCN)C(=O)N[C@@H](CC(C)C)C(=O)O)C(C)C [KWKLFKKIGKVLKKL]
- MIC [1]: 16 µM (≈ 29.7 µg/mL)
- MIC (Escherichia coli BL21): 1 µM (≈ 1.86 µg/mL)
- MIC [2]: 0.25 µM (≈ 0.464 µg/mL)
- MIC [3]: 1.41 µM (≈ 2.63 µg/mL)
- MIC [4]: 5.66 µM (≈ 10.5 µg/mL)

SMILES: CC(C)[C@H](NC(=O)[C@H](C)NC(=O)[C@H](CCCN=C(N)N)NC(=O)[C@H](CCCN=C(N)N)NC(=O)[C@H](Cc1c[nH]c2ccccc12)NC(=O)[C@H](Cc1c[nH]c2ccccc12)NC(=O)CN)C(=O)N[C@@H](C)C(=O)N[C@@H](CCCCN)C(=O)N[C@H](C(=O)N[C@@H](CCCN=C(N)N)C(=O)N[C@@H](CCCCN)C(N)=O)C(C)C [GWWRRAVAKVRK]
- MIC (Aureobasidium pullulans): 25 µM (≈ 37.8 µg/mL)
- MIC [5]: 1.6 µM (≈ 2.42 µg/mL)
- MIC [6]: 3.1 µM (≈ 4.69 µg/mL)
- MIC [7]: 25 µM (≈ 37.8 µg/mL)
- MIC [8]: 3.1 µM (≈ 4.69 µg/mL)
- MIC [9]: 12.5 µM (≈ 18.9 µg/mL)

SMILES: NC(=O)CC[C@H](NC(=O)[C@H](Cc1c[nH]c2ccccc12)NC(=O)[C@H](CCCN=C(N)N)NC(=O)[C@H](CCCN=C(N)N)NC(=O)[C@H](Cc1c[nH]c2ccccc12)NC(=O)[C@@H](N)Cc1ccccc1)C(=O)N[C@@H](Cc1c[nH]c2ccccc12)C(=O)N[C@@H](CCCN=C(N)N)C(=O)N[C@@H](CCCN=C(N)N)C(=O)N[C@@H](CCCN=C(N)N)C(=O)N[C@@H](Cc1c[nH]c2ccccc12)C(=O)N[C@@H](Cc1ccccc1)C(N)=O [FWRRWQWRRRWF]
- MIC (Escherichia coli UB1005): 16 µM (≈ 31.4 µg/mL)
- MIC [10]: > 128 µM
- MIC [11]: 16 µM (≈ 31.4 µg/mL)
- MIC [12]: 128 µM (≈ 252 µg/mL)
- MIC [13]: 8 µM (≈ 15.7 µg/mL)
- MIC [14]: 8 µM (≈ 15.7 µg/mL)
- MIC [15]: ≥ 128 µM
- MIC [16]: 16 µM (≈ 31.4 µg/mL)

SMILES: CC[C@H](C)[C@H](NC(=O)[C@H](CCCN=C(N)N)NC(=O)[C@H](CO)NC(=O)[C@H](CC(C)C)NC(=O)[C@@H](N)CCCN=C(N)N)C(=O)N[C@H](C(=O)N[C@H](C(=O)N[C@H](C(=O)N[C@@H](CCCN=C(N)N)C(=O)N[C@H](C(=O)N[C@@H](CO)C(=O)N[C@@H](CCCN=C(N)N)C(N)=O)C(C)C)[C@@H](C)CC)C(C)C)C(C)C [RLSRIVVIRVSR]
- MIC (Escherichia coli UB1005): 1.38 µM (≈ 2 µg/mL)
- MIC (Listeria monocytogenes): 0.172 µM (≈ 0.25 µg/mL)
- MIC [17]: 22 µM (≈ 32 µg/mL)
- MIC [2]: 0.688 µM (≈ 0.999 µg/mL)
- MIC [16]: 2.75 µM (≈ 4 µg/mL)
- MIC [18]: 11 µM (≈ 16 µg/mL)
- MIC [19]: 2.75 µM (≈ 4 µg/mL)

SMILES: CC(C)C[C@H](NC(=O)[C@H](CS)NC(=O)[C@H](Cc1cnc[nH]1)NC(=O)[C@H](C)NC(=O)[C@H](C)NC(=O)[C@H](CS)NC(=O)[C@H](C)NC(=O)[C@H](C)NC(=O)[C@@H](N)CC(=O)O)C(=O)N[C@@H](Cc1c[nH]c2ccccc12)C(=O)N[C@@H](CCCN=C(N)N)C(N)=O [DAACAAHCLWR]
- MIC [20]: > 164 µM
- MIC [21]: > 164 µM
- MIC [22]: ≥ 164 µM
- MIC [23]: ≥ 164 µM
- MIC [24]: ≥ 164 µM

SMILES: CC[C@H](C)[C@H](NC(=O)[C@@H](N)Cc1ccccc1)C(=O)N[C@@H](CCCCN)C(=O)N[C@@H](Cc1c[nH]c2ccccc12)C(=O)N[C@@H](CCCN=C(N)N)C(=O)N[C@@H](Cc1ccccc1)C(=O)N[C@@H](CCCN=C(N)N)C(=O)N[C@@H](CCCN=C(N)N)C(=O)N[C@@H](Cc1c[nH]c2ccccc12)C(=O)N[C@@H](CCCCN)C(=O)N[C@@H](CCCCN)C(=O)N[C@@H](CCCN=C(N)N)C(=O)N[C@@H](CCCCN)C(N)=O [FIKWRFRRWKKRK]
- MIC [25]: 22.6 µM (≈ 43.8 µg/mL)
- MIC [26]: 5.66 µM (≈ 10.9 µg/mL)
- MIC [3]: 4 µM (≈ 7.74 µg/mL)
- MIC [27]: 8 µM (≈ 15.5 µg/mL)

SMILES: CC[C@H](C)[C@H](NC(=O)[C@H](CCCN=C(N)N)NC(=O)[C@H](C)NC(=O)[C@H](CC(C)C)NC(=O)[C@@H](N)CCCN=C(N)N)C(=O)N[C@H](C(=O)N[C@H](C(=O)N[C@H](C(=O)N[C@@H](CCCN=C(N)N)C(=O)N[C@@H](Cc1c[nH]c2ccccc12)C(=O)N[C@@H](C)C(=O)N[C@@H](CCCN=C(N)N)C(N)=O)[C@@H](C)CC)C(C)C)C(C)C [RLARIVVIRWAR]
- MIC (Escherichia coli UB1005): 2.65 µM (≈ 4 µg/mL)
- MIC [25]: 16 µM (≈ 24.1 µg/mL)
- MIC (Candida albicans): 5.3 µM (≈ 7.99 µg/mL)
- MIC [28]: 5.3 µM (≈ 7.99 µg/mL)
- MIC [26]: 16 µM (≈ 24.1 µg/mL)
- MIC [2]: 1.33 µM (≈ 2 µg/mL)
- MIC [29]: 10.6 µM (≈ 16 µg/mL)
- MIC [3]: 16 µM (≈ 24.1 µg/mL)
- MIC [16]: 5.3 µM (≈ 7.99 µg/mL)
- MIC [19]: 2.65 µM (≈ 4 µg/mL)
- MIC [27]: 16 µM (≈ 24.1 µg/mL)

SMILES: CC[C@H](C)[C@H](NC(=O)CNC(=O)[C@H](CO)NC(=O)[C@@H](NC(=O)[C@H](CC(C)C)NC(=O)[C@H](CCC(=O)O)NC(=O)[C@H](CC(N)=O)NC(=O)[C@H](C)NC(=O)[C@H](CCCCN)NC(=O)[C@H](CCC(=O)O)NC(=O)[C@H](CCCCN)NC(=O)[C@@H](NC(=O)[C@H](CCCCN)NC(=O)[C@H](CCC(=O)O)NC(=O)[C@H](Cc1c[nH]c2ccccc12)NC(=O)[C@H](CC(C)C)NC(=O)CN)C(C)C)C(C)C)C(=O)N[C@H](C(=O)N[C@@H](CCC(=O)O)C(=O)NCC(=O)N[C@H](C(=O)N[C@@H](CCCCN)C(N)=O)C(C)C)C(C)C [GLWEKVKEKANELVSGIVEGVK]
- MIC [10]: > 41.4 µM
- MIC (Listeria innocua): ≥ 41.4 µM
- MIC (Enterococcus faecalis): ≥ 41.4 µM
- MIC (Escherichia coli): > 41.4 µM
- MIC (Micrococcus luteus): ≥ 41.4 µM
- MIC (Streptococcus uberis): ≥ 41.4 µM
- MIC (Pseudomonas aeruginosa): > 41.4 µM
- MIC (Enterobacter cloacae): ≥ 41.4 µM
- MIC (Pasteurella multocida): ≥ 41.4 µM
- MIC (Bacillus cereus): ≥ 41.4 µM
- MIC [2]: ≥ 41.4 µM
- MIC [16]: > 41.4 µM
- MIC (Leuconostoc lactis): ≥ 41.4 µM

SMILES: CC(C)[C@H](NC(=O)[C@H](CCCCN)NC(=O)[C@H](C)NC(=O)[C@@H](NC(=O)[C@@H](NC(=O)[C@H](CCCN=C(N)N)NC(=O)[C@H](CCCN=C(N)N)NC(=O)[C@H](Cc1c[nH]c2ccccc12)NC(=O)[C@H](Cc1c[nH]c2ccccc12)NC(=O)[C@H](C)N)[C@@H](C)O)C(C)C)C(=O)N[C@@H](CCCN=C(N)N)C(=O)N[C@@H](CCCCN)C(N)=O [AWWRRTVAKVRK]
- MIC (Aureobasidium pullulans): ≥ 50 µM
- MIC [5]: 0.8 µM (≈ 1.24 µg/mL)
- MIC [6]: 12.5 µM (≈ 19.4 µg/mL)
- MIC [7]: 25 µM (≈ 38.9 µg/mL)
- MIC [8]: 6.3 µM (≈ 9.8 µg/mL)
- MIC [9]: 25 µM (≈ 38.9 µg/mL)
